Patent US10702537B2, “Devices and methods of treating methamphetamine addiction and medical and behavioral consequences of methamphetamine use and of HIV infection” (Board of Supervisors of Louisiana State University and …, priority 2015, dated 2020)
“Also recorded” adds a separate entry of the source. Like-named read-outs stand apart in the source and are kept apart here.

Assays:
[1] = test system: rats; details: cited from earlier work
[2] = test system: male rats; test: methamphetamine self-administration in male rats; type: in vivo, rat; details: for antagonism of oxazepam's effect on methamphetamine self-administration: standard dose methamphetamine; for low dose methamphetamine self-administration: alprazolam 4 mg/kg IP, very low doses of methamphetamine, FIG. 3, 5A
[3] = test system: female rats; test: methamphetamine self-administration in female rats; type: in vivo, rat
Description: Turning to FIGS. 6 and 7, the inventors tested the TSPO compound Ro5-4864 in an animal model of methamphetamine self-administration in male and female rats. […] The inventors compared these effects to the effects of the benzodiazepine alprazolam. […] The inventors also show preliminary data with Ro7-9277 with female rats.

[4] = test system: drug-dependent individuals; details: cited from earlier work
[5] = test system: female Wistar rats; test: methamphetamine drug discrimination; type: in vivo, rat; details: female Wistar rats trained to discriminate 1 mg/kg methamphetamine (IP) from saline; pretreatment; alprazolam 4 mg/kg IP at low doses 0.125 and 0.25 mg/kg methamphetamine; FIG. 2A
Procedure: (§1) Adult female Wistar rats were trained to discriminate 1 mg/kg methamphetamine (IP) from saline using food pellet reinforcement according to previously published procedures (Mantsch and Goeders, 1999, 1998). Pretreatment with alprazolam (4 mg/kg, IP) enhanced the methamphetamine discriminative stimulus at doses of 0.125 and 0.25 mg/kg methamphetamine. […] These observations have been confirmed using a conditioned place preference model as well, evidencing that benzodiazepines differentially modulate the rewarding and reinforcing properties of methamphetamine. […] Thus, this is an extraordinarily consistent pattern across three very different models of drug-related behaviors.

[6] = test system: GABAA receptor; test: ex vivo homogenate binding, GABAA receptor; details: structure-activity relationships, confirmed by ex vivo homogenate binding in rat brain tissue
[7] = test system: rats; test: methamphetamine drug-induced reinstatement (D-IR) study; type: in vivo, rat; details: FIG. 4
[8] = test system: humans; details: Lile et al., cited from earlier work
[9] = test system: female rats; test: cocaine drug discrimination; type: in vivo, rat; details: pretreatment, FIG. 2B
[10] = biological target: TSPO (Rattus norvegicus, UniProt P16257); test: ex vivo homogenate binding, TSPO; details: structure-activity relationships, confirmed by ex vivo homogenate binding in rat brain tissue
Sequence of TSPO (Rattus norvegicus, UniProt P16257) (P16257 whole entry): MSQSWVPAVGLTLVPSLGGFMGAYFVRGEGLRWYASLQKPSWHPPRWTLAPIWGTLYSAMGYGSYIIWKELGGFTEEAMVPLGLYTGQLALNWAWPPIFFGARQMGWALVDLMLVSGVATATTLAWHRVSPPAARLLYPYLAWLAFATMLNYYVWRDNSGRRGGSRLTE

[11] = cocaine-related behaviors; details: in vivo
Procedure: Benzodiazepines affect cocaine and methamphetamine-related behaviors differently—The inventors' laboratory has long been interested in the role for benzodiazepines in drug addiction.
as §1

[12] = test system: TSPO; details: cited from earlier work
[13] = test system: TSPO mRNA; details: rats; 1.0 mg/kg IP twice per day for 2 weeks, withdrawn for 7 days; cited from earlier work
[14] = humans, cited from earlier work
[15] = rats, intraperitoneal injection; cited from earlier work
[16] = male rats trained at 0.06 mg/kg/infusion, pretreatment

For `CC(=O)[C@H]1CC[C@H]2[C@@H]3CC[C@H]4C[C@H](O)CC[C@]4(C)[C@H]3CC[C@]12C` [Allopregnanolone], the cocaine-related responding ([1]; both genders) is given as “decrease” and the methamphetamine-related responding ([1]; female rats) is given as “decrease”.
With `CCC(C)N(C)C(=O)c1cc2ccccc2c(-c2ccccc2Cl)n1` (stereo not shown) [PK11195] the “antagonism of oxazepam's effect on methamphetamine self-administration” value (shortened to “antagonism of oxazepam's effect”) ([2]; male rats, FIG. 5B) was “partially blocked” and the “antagonism of oxazepam's effect” value ([2]; male rats, FIG. 5B, listed as PKII195) was “blocked”.
For `CN1C(=O)CN=C(c2ccc(Cl)cc2)c2cc(Cl)ccc21` [Ro5-4864, 4′,7-Dichloro-1,3-dihydro-1-methyl-5-phenyl-2H-1,4-benzodiazepin-2-one], the methamphetamine self-administration ([2]; male rats, FIG. 6) was “dose-related decrease”, the “sensitivity of female rats compared to male rats to the effect on methamphetamine self-administration” value ([3]; FIG. 7 versus FIG. 6) was “significantly more sensitive” and the methamphetamine self-administration ([3]; female rats, FIG. 7) was “dose-related decrease”.
In the case of `Cc1nnc2n1-c1ccc(Cl)cc1C(c1ccccc1)=NC2` [alprazolam, 8-chloro-1-methyl-5-phenyl-4H-(1,2,4)triazolo-1,4-benzodiazepine], the “desirability among benzodiazepines (abuse liability)” value [4] is listed as “one of the most desired”, the “methamphetamine discriminative stimulus effects” value [5] is listed as “enhanced” and the “binding to the GABAA receptor” value [6] is listed as “binds selectively”. For the same compound, the “low dose methamphetamine-induced reinstatement” value ([7]; low-dose priming injection of methamphetamine) was “enhanced; also recorded: potentiated”, the “subjective effects of the methamphetamine high” value ([8]; benzodiazepine given acutely at the same time as the stimulant) was “reduced” and the “cocaine discriminative stimulus effects” value [9] was “did not affect; also recorded: no effect”. The “low dose methamphetamine self-administration” value [2, 16] was “enhanced; also recorded: significant increases”, the “binding to the TSPO” value [10] was “low affinity” and the cocaine-related behaviors [11] was “decrease; also recorded: reduce”.
With `CCOC(=O)c1ncn2c1CN(C)C(=O)c1cc(F)ccc1-2` [flumazenil] the “antagonism of alprazolam's effect on low-dose methamphetamine self-administration” value ([2]; antagonist administered 30 minutes prior to alprazolam, FIG. 5A) was “inhibited; also recorded: blocked” and the “antagonism of oxazepam's effect” value ([2]; male rats, FIG. 5B) was “partially blocked”.
In the case of `CN[C@@H](C)Cc1ccccc1` [methamphetamine], the TSPO binding ([12]; self-administration of methamphetamine 0.3 mg/kg/inf) is given as “enhances”, the “TSPO binding in the striatum, cerebellum and hippocampus” value ([12]; subchronic repeated doses 4×10 mg/kg SC every two hours, within 72 hours) is given as “increase” and the “TSPO mRNA” value [13] is given as “enhances”. For the same compound, the “Tmax of methamphetamine in blood” value ([14]; intranasal administration) was 2.82 ± 0.13 h, the “Tmax of methamphetamine in blood” value ([14]; intravenously administered) was 0.1 ± 0.183 h and the “Tmax of methamphetamine in blood” value ([14]; oral, range 180-300 min) was 3.6 h. For the same compound, the “Tmax of methamphetamine in blood” value ([14]; smoked) was 2.5 ± 0.5 h and the Tmax of methamphetamine [15] was 7.5 ± 2.8 min.
For `O=C1Nc2ccc(Cl)cc2C(c2ccccc2)=NC1O` (stereo not shown) [oxazepam, 7-chloro-1,3-dihydro-3-hydroxy-5-phenyl-2H-1,4-benzodiazepin-2-one], the “desirability among benzodiazepines (abuse liability)” value [4] is given as “one of the least desirable”, the “methamphetamine discriminative stimulus effects” value [5] is given as “dose-dependently decreased” and the “binding to the GABAA receptor” value [6] is given as “binds”. For the same compound, the methamphetamine-induced reinstatement ([7]; all doses tested) was “decreased”, the “subjective effects of d-amphetamine” value ([8]; benzodiazepine given acutely at the same time as amphetamine) was “no significant effect” and the “cocaine discriminative stimulus effects” value [9] was “dose-dependently decreased”. For the same compound, the “low dose methamphetamine self-administration” value [2, 16] was “no effect”, the “methamphetamine self-administration across all doses tested” value ([2]; male rats trained at 0.06 mg/kg/infusion, pretreatment, FIG. 3) was “decreased; also recorded: significant decreases” and the “standard dose methamphetamine self-administration” value ([2]; male rats, FIG. 5B) was “decreased”. For the same compound, the “binding to the TSPO” value [10] was “binds” and the cocaine-related behaviors [11] was “decrease; also recorded: reduce”.
